Several values for one entry are separate records, joined by “and”; a condition that tells them apart may be missing. Equal values may be shown once. Marks after values point to notes of the source that are not given here. Values belong to the compound of their own block, whether it stands above or below them.
Key:
sucrase [1] = test: Ileal sucrase activity in 5-FU treated rats; format: in vivo, rat; conditions: 5-FU 150 mg/kg i.p., normal level 54.9±0.9
Procedure: (§1) Ten female Dark Agouti rats were injected intraperitoneally with 150 mg/kg 5-FU; three rats there killed at 48, 72 and four at 96 hours after 5-FU treatment. Two control rats were not treated with 5-FU. Sucrose breath tests (SBT) were undertaken before chemotherapy and prior to sacrifice by measuring released ^13CO2 in the breath after gavages of ^13C-sucrose as an indicator of small intestine (SI) sucrase function. Tissue samples were collected from SI for sucrase enzyme determinations and histological assessment from the jejunum and ileum.

small intestine [2] = test: Histological severity scores of jejunum and ileum in 5-FU treated rats; format: in vivo, rat; conditions: 5-FU 150 mg/kg i.p.
Procedure: as §1

Dark Agouti rats [3] = test: Food intake of 5-FU treated rats; format: in vivo, rat; conditions: 5-FU 150 mg/kg i.p.
Procedure: as §1

sucrase [4] = test: In vitro assay of sucrase activity in duodenum, jejunum and ileum of methotrexate-treated rats; format: in vivo, rat; conditions: Day 7 after methotrexate treatment, vs control, p<0.0005
Text: Rats were sacrificed in the afternoon of day 7 by cervical dislocation under CO2 anaesthesia. The abdomen was opened via a midline incision and the liver and gut excised. The gut contents were flushed thoroughly with phosphate buffered saline, pH 6.0. The small intestine was placed on an ice-cold slab and divided into three sections: the duodenum comprising the intestine from the gastro-duodenal junction to the ligament of Treitz; the remaining intestine from the ligament of Treitz to the caecum was divided in half to provide jejunum and ileum of equal length. […]
the method of Dahlqvist (1968). […] Enzyme activity was then related to the protein concentration of the enzyme preparation as determined by the method of Bradford (1976), in which a standard curve of bovine serum albumin concentration is used to ascertain the protein content of the sample. As a result, the sucrase activity representative of duodenal, jejunal and ileal brush border membrane was determined as μ mol of substrate hydrolysed at 37° C. at pH 6.0/mg protein/hour.
Sucrase activity was expressed as specific activity relative to protein (μmol substrate hydrolysed at 37° C. at pH 6.0/mg protein/hour) and presented as mean±SEM. […] Significant difference in sucrase activity in the duodenum, jejunum and ileum of methotrexate-treated compared to control rats was detected using an unpaired t-test.

small intestine [5] = test: Histological severity score of small intestinal damage, methotrexate-treated rats; format: in vivo, rat; conditions: rats treated with methotrexate seven days earlier, n=4; median; maximum score 33
Text: Rats were sacrificed in the afternoon of day 7 by cervical dislocation under CO2 anaesthesia. The abdomen was opened via a midline incision and the liver and gut excised. The gut contents were flushed thoroughly with phosphate buffered saline, pH 6.0. The small intestine was placed on an ice-cold slab and divided into three sections: the duodenum comprising the intestine from the gastro-duodenal junction to the ligament of Treitz; the remaining intestine from the ligament of Treitz to the caecum was divided in half to provide jejunum and ileum of equal length. A 4 cm portion was excised from each intestinal section and was rapidly frozen in liquid nitrogen, before being transferred to a −70° C. freezer until determination of sucrase activity. A further 1 cm of each section was excised and fixed in methacarn fixative for two hours, transferred to 70% ethanol for 48 hours, and embedded in paraffin wax for histological analysis (Howarth et al., (1996).
Tissue samples in paraffin wax were sectioned transversely at 21 μm, stained with haematoxylin and eosin to expose the structure of the intestinal mucosa, and examined by an under a light microscope (Howarth et al., 1996). A semi-quantitative histological assessment of intestinal damage was utilised to obtain an overall score of damage severity in the three sections of the small intestine. A severity score ranging from 0-3 was allocated for 11 histological features (table 1), such that the maximum severity score (33) indicated the most severe damage (Howarth et al., 1996).
Histological severity scores were calculated and presented as median and range. The unpaired non-parametric Mann-Whitney two-sample test was employed to compare the severity scores of the methotrexate-treated rats with controls for each section of intestine.

Dark Agouti rats [6] = test: Food intake, body weight, villus height and overall mucosal damage in MTX-treated rats with or without folinate; format: in vivo, rat
Procedure: (§2) Sixteen female SPF Dark Agouti rats were housed in individual metabolism cages and were given ad libitum access to a semi-synthetic casein based diet and fresh water. Food and water intakes and body weights were measured daily. They were given two injections of MTX (1.5 mg/kg i/m) at 0 and 24 hrs. Calcium folinate was added to the drinking water of eight rats (10 mg/m^2) 2 hours prior to, and during MTX injections. Eight rats were given MTX but no folinate treatment, and four control rats were given no treatments. Four rats from each treatment group were killed at 72 hours, and the other four at 120 hours, after initial chemotherapy. SBT were undertaken before chemotherapy, and at 52 and 100 hours after initial chemotherapy.
(§3) At the appropriate times, rats were anaesthetised with halothane, cardiac blood samples collected and the animals were killed by cervical dislocation. The small intestine was emptied, flushed with chilled saline and weighed. Samples were collected into formalin from each of the proximal jejunum for histological assessment, and from the jejunum into liquid nitrogen for sucrase and myeloperoxidase determinations.

myeloperoxidase = test: Jejunal myeloperoxidase (MPO) in MTX-treated rats; format: in vivo, rat; conditions: MTX treated rats not given folinate, 72 hours
Procedure: as §2, §3

sucrase [7] = biological target: T1, sucrase (Homo sapiens, UniProt P14410); test: 13C-Sucrose Breath Test in healthy adults, with and without sucrase inhibitor; format: in vivo; conditions: two human subjects, respectively; 200 mg acarbose with 20 g sucrose vs 20 g sucrose alone
T1 construct: from tissue; host or cells: small-intestinal brush border of living human volunteers (in vivo breath test; no isolated protein)
Procedure: Breath samples were analysed for ^13CO2 by an isotope ratio mass spectrometer (IRMS; Europa Scientific, ABCA 20/20, Crewe, United Kingdom) equipped with a V410 data collection system. Isotope ratio mass spectrometric analysis of breath samples expresses results as a delta value, representing the ratio of ^13C/^12C in the sample in parts per thousand relative to the calcium carbonate international primary standard, Pee-Dee Belemnite limestone (South Carolina, USA)(Renes et al., (1997). Baseline levels of breath ^13CO2 were determined by averaging the delta of breath samples collected prior to the ingestion of sucrose. Results from the ^13C-Sucrose Breath Test were then calculated as the change in breath ^13CO2 levels from baseline (i.e. delta over baseline: DOB) for each time point of breath collection over the period of interval sampling. The area under the “change in breath ^13CO2 level over time” curve (AUC) was calculated using the trapezoidal rule: AUC=Σ[(DOBt1+DOBt2)/2]×(t2−t1)
The study recruited 10 healthy, non-smoking adults (male n=2; female n=8) aged 19-37 years old (mean age 22+2 years) with mean weight 65.2+3 kg. Subjects had no known history of gastrointestinal or liver disease. Antibiotic and non-steroidal antiinflammatory drug use in the three weeks preceding the experiment and acute alcohol consumption the day preceding the experiment warranted exclusion. […]

Dark Agouti rats [8] = test: Sucrose breath test in MTX-treated rats with or without folinate; format: in vivo, rat
Procedure: as §2
Breath ^13CO2 levels are indicative of sucrase activity in the small intestine. SBTs were undertaken before and after chemotherapy. • Rats were fasted for 3 hrs and placed in the collection chambers for 15 minutes to acclimatise and baseline samples collected into exetainers. • Rats were gavaged with 1.0 ml of a sucrose solution containing 1 g/ml of naturally enriched ^13C-sucrose. • Breath samples were collected at 30, 60 and 90 minute time intervals after gavage and analysed for ^13CO2 by isotope ratio mass spectrometry (PDZ-Europa ABCA).

sucrase [9] = test: Jejunal sucrase activity in MTX-treated rats with or without folinate; format: in vivo, rat; conditions: MTX-treated rats with folinate vs non-folinate
Procedure: as §2, §3
Sucrase activity was measured using a modification of the glucose oxidase method for estimation of the […] glucose concentration (Dahlqvist, 1968).

sucrase [10] = biological target: T1, sucrase; test: Breath hydrogen analysis in healthy adults, with and without sucrase inhibitor; format: in vivo; conditions: 20 g sucrose with or without 200 mg acarbose, 180 min
Procedure: Subjects ingested 20 g, 40 g and 60 g sucrose (AnalaR, BDH, MERCK Pty Ltd, Victoria, Australia) dissolved in 100 ml water on separate occasions. The order of these breath tests was random for each subject. To determine whether the breath test was capable of detecting inhibition of sucrase activity, two volunteers ingested 2×100 mg sucrase inhibitor (Acarbose tablets, Glucobay™) crushed and dissolved in 30 ml water, immediately followed by 20 g sucrose dissolved in 70 ml water.
All subjects were required to fast for a minimum of eight hours prior to testing and for the three hour duration of the test period. Small amounts of water were permitted 30 minutes after ingestion of the test solution. Subjects provided two baseline breath samples immediately prior to ingestion of the test solution. Following ingestion of the test solution, breath samples were collected every 15 minutes for three hours. Physical activity was avoided during the three hour experimental period, particularly at breath collection time points. End-expiratory breath samples were provided by exhaling through a straw into 5×10 ml glass tubes (Exetainer, Labco Limited, High Wycombe, England). […]
Breath samples provided by human subjects were analysed for hydrogen content by gas chromatography (Quintron, Model DP Microlyzer, E.F. Brewer Company, Wisconsin). […]

T1 sequence (P14410 whole entry): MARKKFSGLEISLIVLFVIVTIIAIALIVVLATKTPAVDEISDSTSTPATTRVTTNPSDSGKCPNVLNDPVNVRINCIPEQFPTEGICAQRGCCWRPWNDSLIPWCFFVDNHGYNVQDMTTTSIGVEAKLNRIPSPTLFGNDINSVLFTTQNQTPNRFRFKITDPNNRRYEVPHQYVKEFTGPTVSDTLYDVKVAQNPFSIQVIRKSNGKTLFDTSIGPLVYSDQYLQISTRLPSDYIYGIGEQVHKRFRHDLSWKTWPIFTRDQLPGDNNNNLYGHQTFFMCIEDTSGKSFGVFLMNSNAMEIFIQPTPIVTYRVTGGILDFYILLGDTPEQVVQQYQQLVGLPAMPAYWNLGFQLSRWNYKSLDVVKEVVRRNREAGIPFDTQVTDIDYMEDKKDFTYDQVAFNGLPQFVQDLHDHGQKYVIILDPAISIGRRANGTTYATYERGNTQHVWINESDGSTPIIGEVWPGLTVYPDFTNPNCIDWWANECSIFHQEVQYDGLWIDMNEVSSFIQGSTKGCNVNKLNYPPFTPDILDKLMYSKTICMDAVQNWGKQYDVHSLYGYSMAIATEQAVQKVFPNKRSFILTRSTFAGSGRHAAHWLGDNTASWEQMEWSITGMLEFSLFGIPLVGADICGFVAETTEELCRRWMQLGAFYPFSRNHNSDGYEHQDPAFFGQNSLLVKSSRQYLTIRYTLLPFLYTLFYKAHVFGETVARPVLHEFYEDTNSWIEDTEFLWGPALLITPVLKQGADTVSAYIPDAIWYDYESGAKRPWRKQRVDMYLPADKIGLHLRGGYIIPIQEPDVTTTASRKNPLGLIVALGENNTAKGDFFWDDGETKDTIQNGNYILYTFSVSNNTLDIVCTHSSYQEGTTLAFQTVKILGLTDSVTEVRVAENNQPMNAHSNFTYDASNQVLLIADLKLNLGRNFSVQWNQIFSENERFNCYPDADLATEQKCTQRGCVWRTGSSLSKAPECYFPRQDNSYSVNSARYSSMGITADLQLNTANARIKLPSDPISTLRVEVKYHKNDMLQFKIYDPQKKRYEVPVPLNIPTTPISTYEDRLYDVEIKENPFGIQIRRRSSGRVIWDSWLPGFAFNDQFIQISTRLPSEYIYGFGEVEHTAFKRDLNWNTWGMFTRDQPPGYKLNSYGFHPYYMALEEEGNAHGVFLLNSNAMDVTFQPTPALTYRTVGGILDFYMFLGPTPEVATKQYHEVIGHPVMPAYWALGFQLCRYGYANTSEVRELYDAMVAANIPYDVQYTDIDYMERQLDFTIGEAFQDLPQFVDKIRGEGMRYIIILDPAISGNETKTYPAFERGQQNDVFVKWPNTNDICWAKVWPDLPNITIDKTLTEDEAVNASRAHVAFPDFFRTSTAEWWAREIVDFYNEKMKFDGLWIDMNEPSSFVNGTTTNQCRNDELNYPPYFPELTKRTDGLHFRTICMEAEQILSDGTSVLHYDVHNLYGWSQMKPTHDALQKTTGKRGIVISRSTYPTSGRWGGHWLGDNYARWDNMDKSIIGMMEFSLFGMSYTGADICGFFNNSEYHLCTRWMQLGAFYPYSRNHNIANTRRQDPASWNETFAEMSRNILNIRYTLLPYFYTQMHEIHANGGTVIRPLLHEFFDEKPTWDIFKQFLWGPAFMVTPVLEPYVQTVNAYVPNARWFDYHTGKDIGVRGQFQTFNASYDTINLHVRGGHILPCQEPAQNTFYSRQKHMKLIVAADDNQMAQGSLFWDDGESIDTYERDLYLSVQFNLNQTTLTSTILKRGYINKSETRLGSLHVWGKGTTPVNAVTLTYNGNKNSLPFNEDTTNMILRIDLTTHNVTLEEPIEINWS

Structure (SMILES): O=c1[nH]cc(F)c(=O)[nH]1 [5-FU, 5-fluorouracil]
- Ileal sucrase activity at 72 hours (sucrase [1]): 7.52±0.82 nmol glucose/min/cm
- Histological severity score, ileum, 72 hours (small intestine [2]): 12
- Histological severity score, ileum, 96 hours (small intestine [2]): 8
- Histological severity score, jejunum, 72 hours (small intestine [2]): 8
- Histological severity score, jejunum, 96 hours (small intestine [2]): 5
- Histological severity score, ileum, 48 hours (small intestine [2]; median): 17
- Histological severity score, jejunum, 48 hours (small intestine [2]; median): 13
- Food intake 72 hours after injection (Dark Agouti rats [3]): 4.7 ± 0.7 g
- Food intake 96 hours after injection (Dark Agouti rats [3]): 6.4 ± 0.8 g
- Food intake 24 hours after injection (Dark Agouti rats [3]; before treatment 11.1±0.3 g/rat/day): 5.3 ± 0.4 g

Structure (SMILES): C[C@H]1O[C@H](O[C@H]2[C@H](O)[C@@H](O)[C@@H](O[C@H]3[C@H](O)[C@@H](O)C(O)O[C@@H]3CO)O[C@@H]2CO)[C@H](O)[C@@H](O)[C@@H]1N[C@H]1C=C(CO)[C@@H](O)[C@H](O)[C@H]1O (stereo partly shown) [Acarbose]
- Breath 13CO2 AUC diminished in the presence of the inhibitor (sucrase [7]): 57% and 93%

Structure (SMILES): Nc1nc(=O)c2c([nH]1)NCC(CNc1ccc(C(=O)N[C@@H](CCC(=O)[O-])C(=O)[O-])cc1)N2C=O.[Ca+2] (stereo partly shown) [Calcium folinate]
- Disruption to the sucrase activity by SBT, folinate vs no folinate (Dark Agouti rats [8]; MTX-treated rats, p<0.0012 at 52 hours, p<0.0136 at 100 hours): significant decrease in disruption to the sucrase activity
- SBT result (breath 13CO2) 52 hrs after MTX treatment (Dark Agouti rats [8]; rats, MTX 1.5 mg/kg i/m at 0 and 24 hrs, calcium folinate 10 mg/m^2 in drinking water): attenuates mucosal damage
- Jejunal sucrase activity (sucrase [9]): prevented the reduction in jejunal sucrase activity
- Damage to the small intestinal mucosa by sucrase activity, MPO levels, histological changes and sucrose breath testing (Dark Agouti rats [6]; MTX-treated rats): totally prevented damage
- Villus heights (structural damage) (Dark Agouti rats [6]; MTX-treated rats, folinate administered orally): structural damage was attenuated

Further lines, with some results ahead:

- Myeloperoxidase (inflammatory marker), jejunum (myeloperoxidase): significantly higher
Structure (SMILES): CN(Cc1cnc2nc(N)nc(N)c2n1)c1ccc(C(=O)N[C@@H](CCC(=O)O)C(=O)O)cc1 [methotrexate]
- Sucrase activity in duodenum, jejunum and ileum (sucrase [4]): significantly diminished in all three sections of intestine
- Severity score, duodenum (small intestine [5]): 8 *
- Severity score, ileum (small intestine [5]): 6.5 *
- Severity score, jejunum (small intestine [5]): 10 *
- Body weights (Dark Agouti rats [6]; rats, MTX without folinate, after chemotherapy): decreased
- Reduction in food intake (Dark Agouti rats [6]; rats, MTX without folinate, from t0 to 96 hours after treatment): 20%

- Breath Hydrogen, Subject 1, maximum change from baseline (sucrase [10]): 2 ppm
- Breath Hydrogen, Subject 2, maximum change from baseline (sucrase [10]): 2 ppm
Structure (SMILES): OC[C@H]1O[C@@](CO)(O[C@H]2O[C@H](CO)[C@@H](O)[C@H](O)[C@H]2O)[C@@H](O)[C@@H]1O [Sucrose, sucrose]
